For one experiment, the target named is Acetylcholinesterase (Homo sapiens, UniProt P22303).
In experiment [1] the test system is Tobacco mosaic virus. Description: Antiviral activity against Tobacco mosaic virus U1 after 72 hrs by half leaf method. It counts as functional, organism-based. The settings on record: for IC50: U1, 72 h.
For experiment [2], the system named is Tobacco mosaic virus. As to the kind of experiment: Antiviral activity against Tobacco mosaic virus U1 at 1 ug/mL after 72 hrs by half leaf method. It counts as functional. To be noted: U1, 72 h.

This passage reports IC50, Activity and inhibition results from ChEMBL document CHEMBL1141279, “Benzylphenethylamine alkaloids from Hosta plantaginea with inhibitory activity against tobacco mosaic virus and acetylcholinesterase” (J Nat Prod, 2007).

Activity calls are given as the source filed them. No cut-off for these calls is given here.

One may read the IC50 as the concentration that inhibits the measured activity by half. Higher therefore signals a need for much substance. What is called inhibition is the change of the read-out against control, counted positive when it falls. A low value points to little suppression.

Sequence of Acetylcholinesterase (P22303 whole entry): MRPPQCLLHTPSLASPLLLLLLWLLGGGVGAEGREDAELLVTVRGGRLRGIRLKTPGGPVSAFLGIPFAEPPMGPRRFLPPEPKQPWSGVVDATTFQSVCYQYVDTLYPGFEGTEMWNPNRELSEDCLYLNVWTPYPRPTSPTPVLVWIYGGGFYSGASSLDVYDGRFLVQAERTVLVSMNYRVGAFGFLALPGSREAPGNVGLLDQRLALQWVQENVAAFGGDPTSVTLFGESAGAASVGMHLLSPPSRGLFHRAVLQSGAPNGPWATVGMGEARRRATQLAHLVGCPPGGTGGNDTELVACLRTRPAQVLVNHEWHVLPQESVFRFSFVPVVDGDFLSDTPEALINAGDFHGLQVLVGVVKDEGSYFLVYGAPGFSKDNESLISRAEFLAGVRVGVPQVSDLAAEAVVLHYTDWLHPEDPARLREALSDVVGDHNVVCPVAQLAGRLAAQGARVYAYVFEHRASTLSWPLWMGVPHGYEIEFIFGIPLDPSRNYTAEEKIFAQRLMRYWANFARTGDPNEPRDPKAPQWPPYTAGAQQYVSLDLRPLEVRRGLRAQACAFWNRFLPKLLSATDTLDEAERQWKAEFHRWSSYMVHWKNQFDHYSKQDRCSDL
Description for Acetylcholinesterase: Inhibition of AChE by Ellman method

In the case of `O[C@H]1[C@H]2c3cc4c(cc3CN3CCC(=C[C@@H]1O)[C@H]23)OCO4` [LYCORINE], at Acetylcholinesterase, the concentration for half-maximal inhibition (IC50) amounted to 155 µM. Also, in the experiment on Tobacco mosaic virus [1], the result was inactive. Consider `O=C1N[C@H]2[C@H](O)[C@H](O)[C@@H](O)C[C@@H]2c2cc3c(cc21)OCO3`, for which the half-maximal inhibitory concentration (IC50) with Tobacco mosaic virus [1] stood at 1.8 µM. As to `COc1cc2c(cc1OC)-c1cccc3c1N(CC3)C2` [ASSOANINE], half-maximal inhibition against Acetylcholinesterase (IC50) was put at 3.87 µM. In turn, `[O-]c1cc2c3c(c1)c1cc4c(cc1c[n+]3CC2)OCO4` [UNGEREMINE] showed a concentration for half-maximal inhibition (IC50) on Acetylcholinesterase of 3.85 µM. In turn, `Oc1ccc2c3c1O[C@H]1C[C@@H](O)C=C[C@@]31CCNC2` [NORSANGUININE] returned a concentration for half-maximal inhibition (IC50) at Acetylcholinesterase of 1.43 µM. In the experiment on Tobacco mosaic virus [1], the outcome was inactive. Regarding `CO[C@@H]1C=C[C@@]23c4cc5c(cc4[C@H](O)N(C[C@@H]2O)[C@H]3C1)OCO5`, the result with Tobacco mosaic virus [1] was inactive. Still for that read-out and setting: to `COc1cc2c(c(OC)c1OC)C(=O)O[C@@H]1CC=C3CCN(C)[C@H]3[C@H]21` belongs “inactive”. `COc1cc2c(cc1OC)[C@]1(OC2=O)[C@H](O)[C@@H](O)C=C2CCN(C)[C@H]21`: the IC50 against Acetylcholinesterase worked out at 2.32 µM. Further, the result with Tobacco mosaic virus [1] was inactive. Take `NC(=O)c1ncn([C@@H]2O[C@H](CO)[C@@H](O)[C@H]2O)n1` [RIBAVIRIN]: the IC50 in the experiment on Tobacco mosaic virus [1] stood at 2990 µM.

As for `O[C@@H]1C=C[C@@]23c4cc5c(cc4CN(C[C@@H]2O)[C@H]3C1)OCO5`, the result in the experiment with Tobacco mosaic virus [1] was inactive. Turning to `CO[C@@H]1C=C[C@@]23c4cc5c(cc4CN(C[C@@H]2O)[C@H]3C1)OCO5` [(+)-HAEMANTHAMINE], on Acetylcholinesterase, it took 452 µM to reach half-maximal inhibition (IC50).

`COc1cc2c(c(OC)c1OC)C(=O)O[C@]21[C@H](O)[C@@H](O)C=C2CCN(C)[C@H]21` returned an IC50 against Acetylcholinesterase of 113 µM. `CC(=O)O[C@H]1[C@H]2c3cc4c(cc3CN3CCC(=C[C@@H]1O)[C@H]23)OCO4`: at Acetylcholinesterase, the 50% inhibitory concentration (IC50) came to 0.96 µM. This IC50 lies about 120-fold lower than the previous one. `COc1ccc2c3c(c4cc(OC)c(OC)cc4c2c1)C[C@H]1CCCN1C3` [(-)-ANTOFINE] showed an inhibition at 1 µg/mL with Tobacco mosaic virus [2] of 65%.
